Results: patent publication US20220090217A1, “BIOMARKERS AND USES THEREOF IN THE TREATMENT OF CHRONIC HBV INFECTION” (Janssen Sciences Ireland Unlimited Company, priority 2020, published 2022)

Tested on: chronic hepatitis B (CHB) patients
Experiment: Onset of clinical relapse after stop of NA treatment (Cox proportional hazard regression)
Format: in vivo, human
Conditions: entecavir compared to tenofovir; among the 110 clinical relapsers
Excerpt: Patients and Study Design: In this multi-center prospective study in Taiwan, 242 CHB patients were enrolled while in their last half year of a minimum 3-year treatment regimen with direct antivirals. Of them, 47 were excluded due to protocol violation, screening failure, lost to follow-up, withdrawal by the subject, use of immune related therapy, or on-treatment clinical relapse. An additional 14 were excluded as the analysis required patients to be hepatitis B e-antigen (HBeAg) negative, hepatitis virus (HBV) DNA <60 IU/mL, and alanine transaminase (ALT) <80 U/L at the last on-treatment visit, leaving […] patients eligible for analysis. […] Cumulative incidence of virological and clinical relapse after stop of treatment was assessed by Kaplan-Meier curves (FIGS. 1A and 1B). […] Statistical Analysis of HLA Data: The association between the HLA alleles (at two and four digits resolution for each locus) and diversity (genetic homozygosity and HED score, independently) and onset of relapse was assessed using a Cox model (Harrell et al., JAMA: The Journal of the American Medical Association, 1982, 247: 2543) including HBsAg level at the last visit on treatment (high (≥100 IU/mL) vs. low (<100 IU/mL)) and the antiviral treatment at enrolment (tenofovir vs. entecavir) as main effects. […]

Structure (SMILES): C=C1[C@H](CO)[C@@H](O)C[C@@H]1n1cnc2c(=O)[nH]c(N)nc21 [entecavir]
- onset of clinical relapse later after stopping treatment, on average: 100 days
